In BindingDB's records for doi:10.1074/jbc.M809430200 (The Scripps Research Institute, 2009):

Key:
[1] = target: Mitogen-activated protein kinase 10 (Homo sapiens, UniProt P53779); assay: Fluorescence Assay; conditions: pH 7; 22 °C
Procedure: (§1) Homogeneous time-resolved fluorescence assay is an enzyme inhibition studies that were performed in 384-well polystyrene homogeneous time-resolved fluorescence plates (grainier).

[2] = target: Mitogen-activated protein kinase 8 (Homo sapiens, UniProt P45983); assay: Fluorescence Assay; conditions: pH 7; 22 °C
Chain of Mitogen-activated protein kinase 8 (P45983 whole entry): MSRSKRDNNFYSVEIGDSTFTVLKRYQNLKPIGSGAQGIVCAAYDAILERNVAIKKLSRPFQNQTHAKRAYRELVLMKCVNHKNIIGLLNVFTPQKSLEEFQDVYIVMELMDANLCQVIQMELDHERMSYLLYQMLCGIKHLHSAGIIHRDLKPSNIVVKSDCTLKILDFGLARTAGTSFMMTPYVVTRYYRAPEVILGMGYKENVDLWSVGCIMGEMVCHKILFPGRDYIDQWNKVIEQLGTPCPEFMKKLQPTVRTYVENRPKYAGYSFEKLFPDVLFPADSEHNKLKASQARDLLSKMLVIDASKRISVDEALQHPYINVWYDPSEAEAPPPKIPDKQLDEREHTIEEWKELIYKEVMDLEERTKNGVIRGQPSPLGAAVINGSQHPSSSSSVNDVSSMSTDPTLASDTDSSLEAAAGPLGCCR
Procedure: as §1

[3] = target: Mitogen-activated protein kinase 14 (p38α) (Homo sapiens) (UniProt Q16539); assay: Homogeneous time-resolved fluorescence assay is an enzyme inhibition studies that were performed in 384-well polystyrene homogeneous time-resolved fluorescence plates (grainier).; conditions: pH 7

Chain of Mitogen-activated protein kinase 10 (P53779 whole entry): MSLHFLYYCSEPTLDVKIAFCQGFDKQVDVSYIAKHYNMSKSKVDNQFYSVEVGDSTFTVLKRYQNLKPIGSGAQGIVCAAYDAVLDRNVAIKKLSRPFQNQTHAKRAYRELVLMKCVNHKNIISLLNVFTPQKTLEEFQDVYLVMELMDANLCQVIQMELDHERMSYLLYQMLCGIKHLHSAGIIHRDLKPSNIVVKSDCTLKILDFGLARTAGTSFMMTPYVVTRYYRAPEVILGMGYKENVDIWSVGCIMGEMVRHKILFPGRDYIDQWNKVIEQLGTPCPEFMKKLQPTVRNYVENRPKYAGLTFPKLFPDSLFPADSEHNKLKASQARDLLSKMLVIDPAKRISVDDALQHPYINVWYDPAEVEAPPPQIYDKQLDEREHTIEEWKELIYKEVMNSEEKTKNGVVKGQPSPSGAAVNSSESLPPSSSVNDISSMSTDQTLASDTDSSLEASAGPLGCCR

## COc1cc(NC(=O)c2cccc(-n3cc(NC(=O)Nc4ccccc4)cn3)c2)cc(OC)c1OC [Aminopyrazole inhibitor, 3451]
[1]
  IC50: 25 nM
[2]
  IC50: 400 nM
[3]
  IC50: 3700 nM

## COc1cc(NC(=O)c2cccc(-n3cc(NC(=O)Nc4ccccc4Cl)cn3)c2)cc(OC)c1OC [Aminopyrazole inhibitor, 3528]
[1]
  IC50: 23 nM
[2]
  IC50: 560 nM
[3]
  IC50: > 20000 nM

## COc1cc(NC(=O)c2cccc(-n3cc(NC(=O)Nc4cccc(C)c4)cn3)c2)cc(OC)c1OC [Aminopyrazole inhibitor, 3576]
[1]
  IC50: 7 nM
[2]
  IC50: 170 nM
[3]
  IC50: > 20000 nM

## COc1cc(NC(=O)c2cccc(-n3cc(NC(=O)Nc4ccc(Cl)cc4)cn3)c2)cc(OC)c1OC [Aminopyrazole inhibitor, 3583]
[1]
  IC50: 480 nM

## Cc1cccc(NC(=O)Nc2cnn(-c3cccc(C(=O)NCCN4CCOCC4)c3)c2)c1 [Aminopyrazole inhibitor, 4018]
[1]
  IC50: 2100 nM
[2]
  IC50: > 20000 nM
[3]
  IC50: > 20000 nM

## O=C(Nc1cnn(-c2cccc(C(=O)NCCCN3CCOCC3)c2)c1)Nc1ccccc1Cl [Aminopyrazole inhibitor, 4276]
[1]
  IC50: 350 nM
[3]
  IC50: > 20000 nM

## Cc1cncc(NC(=O)c2cccc(-n3cc(NC(=O)Nc4ccccc4Cl)cn3)c2)c1 [Aminopyrazole inhibitor, 4326]
[1]
  IC50: 55 nM
[2]
  IC50: 1400 nM
[3]
  IC50: > 20000 nM

## Cc1cncc(NC(=O)c2cc(N(C)C)cc(-n3cc(NC(=O)Nc4ccccc4Cl)cn3)c2)c1 [Aminopyrazole inhibitor, 4642]
[1]
  IC50: 2200 nM
[2]
  IC50: > 20000 nM
[3]
  IC50: > 20000 nM

## Cc1cncc(NC(=O)c2cc(N3CCOCC3)cc(-n3cc(NC(=O)Nc4ccccc4Cl)cn3)c2)c1 [Aminopyrazole inhibitor, 4643]
[1]
  IC50: 1500 nM
[2]
  IC50: > 20000 nM
[3]
  IC50: > 20000 nM
